Target: T1, GPR40 (Homo sapiens, UniProt O14842)
T1 construct: expressed in transfected cells; host or cells: HEK293 cells stably expressing GPR40 (Hygromycin selection)
Test: IP1 accumulation assay in HEK293 cells stably expressing GPR40
Type: cell-based
Protocol: IP1 accumulation assay was used to evaluate the potency of compounds. HEK293 cells stably expressing GPR40 were cultured in 5% CO2 incubator (ThermoFisher) in maintenance media (Dulbecco's modified Eagle's medium with 4.5 g/L of glucose, 10% fetal bovine serum, 100 μg/mL Hygromycin, and Penicillin (100 U/mL)/Streptomycin (100 μg/mL)) till 100% confluency. Cells were harvested freshly, spun down at 300×g for 5 min, and resuspended in pre-warmed 1× stimulant buffer from Cisbio IP-One HTRF Detection kit (Cisbio). Cell density was adjusted to 2.0×10^6 cells/mL. DMSO was used as blank control and AMG-1638 (CAS #: 1142214-62-7) as positive control. Compounds were prepared at 10 mM in DMSO and 5 nL of 3× serially diluted compounds (10 concentrations) were added to each well of the 384-LDV assay plate (Corning) by using ECHO 550 (Labcyte). Five μL of cells in suspension were transferred into each well by using Multidrop Combi Reagent Dispenser (ThermoFisher). Assay plate was then sealed and incubated at 37° C. for 2 hours. IP-d2 reagent and anti-IP1 reagent were prepared following the manual (Cisbio). Five μL of IP1-d2 and then 5 μL of anti-IP1 antibody was added to each well sequentially. Assay plate was incubated at room temperature for 60 min and then read at 665 nm/615 nm on an Envision plate reader (PerkinElmer). The ratio of values obtained at 665 nm and 615 nm was used for calculation of IP1 accumulation: % Effect=(Ratiosample−Ratioblank)/(RatioAMG-1638−Ratioblank)×100. Dose curve was fitted and EC50 of each compound was calculated by using XLFit.

[1] = IP1 accumulation, HEK293 cells stably expressing GPR40, 2 hours at 37° C., % effect relative to AMG-1638, table of Biological Example 1
[2] = Tables A-1a to A-7b (structure-property relationship), obtained by methods of Biological Example 1

T1 sequence (O14842 whole entry): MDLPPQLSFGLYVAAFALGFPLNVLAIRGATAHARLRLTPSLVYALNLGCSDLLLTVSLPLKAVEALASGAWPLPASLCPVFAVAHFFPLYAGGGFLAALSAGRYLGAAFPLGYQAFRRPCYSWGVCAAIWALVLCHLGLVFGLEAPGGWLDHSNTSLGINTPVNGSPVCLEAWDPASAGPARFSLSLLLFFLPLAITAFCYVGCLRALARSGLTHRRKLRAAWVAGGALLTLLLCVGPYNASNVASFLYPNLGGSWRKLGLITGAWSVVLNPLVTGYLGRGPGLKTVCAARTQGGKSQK

SMILES	EC50 [1] [nM]	EC50 [2] [nM]
C[C@H](C(=O)O)[C@H](c1ccc2c(c1)O[C@@H](C1CCN(Cc3cc(-c4cn(CCCCCCCCCCCC(=O)NCCN(CCC(=O)NCCN)CCC(=O)NCCN)nn4)ccc3OC(F)(F)F)CC1)CC2)C1CC1 [Example 36]	403	403
COc1ccc(F)c(-c2ccc(COc3cccc([C@@H](CC(=O)O)C4CC4)c3)cc2CC(C)(C)Cn2cc(CCCCCCCCCCCCCCCCCC(=O)NCC[N+](C)(C)C)nn2)c1 [Example 38]	5.42	–
C[C@H](C(=O)O)[C@H](c1ccc2c(c1)O[C@@H](C1CCN(Cc3cc(-c4cn(CCCCCCCCCCCCCCCC(=O)NCCN(CCC(=O)NCCN)CCC(=O)NCCN)nn4)ccc3OC(F)(F)F)CC1)CC2)C1CC1 [Example 39]	0.83	0.83
COc1ccc(C(=O)N(CC(C)(C)CCCCCCn2cc(CCCCCCCCCCCCCCCCCC(=O)NCC[N+](C)(CCC(=O)NCCN)CCC(=O)NCCN)nn2)c2cccc(C)n2)c(N2CCC(COc3cc([C@@H](CC(=O)O)C4CC4)ccn3)CC2)c1 [Example 42]	0.29	–
COc1ccc(C(=O)N(CC(C)(C)CCCCCCn2cc(CCCCCCCCCCCCC(=O)NCC[N+](C)(CCC(=O)NCCN)CCC(=O)NCCN)nn2)c2cccc(C)n2)c(N2CCC(COc3cc([C@@H](CC(=O)O)C4CC4)ccn3)CC2)c1 [Example 43]	0.21	0.21
COc1ccc(C(=O)N(CC(C)(C)CCCCCCn2cc(CCCCCCCCCCCCCCCCCC(=O)NCC[N+](C)(C)C)nn2)c2cccc(C)n2)c(N2CCC(COc3cc([C@@H](CC(=O)O)C4CC4)ccn3)CC2)c1 [Example 44]	1.74	–
C[C@H](C(=O)O)[C@H](c1ccc2c(c1)O[C@@H](C1CN(Cc3cc(-c4cn(CCCCCCCCCCCCCCCCCC(=O)NCC[N+](C)(CCC(=O)NCCN)CCC(=O)NCCN)nn4)ccc3OC(F)(F)F)C1)CC2)C1CC1 [Example 45]	0.68	–
COc1ccc(F)c(-c2ccc(COc3cccc([C@@H](CC(=O)O)C4CC4)c3)cc2C(C)(C)c2cn(CCCCCCCCCCCCCCC(=O)NCCN(CCC(=O)NCCN)CCC(=O)NCCN)nn2)c1 [Example 47]	117	–
C[C@H](C(=O)O)[C@H](c1ccc2c(c1)O[C@@H](C1CCN(Cc3cc(-c4cn(CCCCCCCCCCCCCCCCCCN(C)CCOCCOCCOCCOCCN5C[C@H](O)[C@@H](O)[C@H](O)[C@H]5CO)nn4)ccc3OC(F)(F)F)CC1)CC2)C1CC1 [Example 50]	8.46	–
COc1ccc(F)c(-c2ccc(COc3cccc([C@@H](CC(=O)O)C4CC4)c3)cc2C(C)(C)c2cn(CCCCCCCCCCCCCCC(=O)NCC[N+](C)(CCC(=O)NCCN)CCC(=O)NCCN)nn2)c1 [Example 51]	318	–
COc1ccc(F)c(-c2ccc(COc3cccc([C@@H](CC(=O)O)C4CC4)c3)cc2CC(C)(C)Cc2cn(CCCCCCCCCCCCCCC(=O)NCCN(CCC(=O)NCCN)CCC(=O)NCCN)nn2)c1 [Example 52]	26	26
COc1ccc(C(=O)N(CC(C)(C)CCCCCCn2cc(CCCCCCCCC(=O)NCC[N+](C)(CCC(=O)NCCN)CCC(=O)NCCN)nn2)c2cccc(C)n2)c(N2CCC(COc3cc([C@@H](CC(=O)O)C4CC4)ccn3)CC2)c1 [Example 53]	3.18	3.81
COc1ccc(C(=O)N(CC(C)(C)CCCCCCn2cc(CCCCCCCCCCC(=O)NCC[N+](C)(CCC(=O)NCCN)CCC(=O)NCCN)nn2)c2cccc(C)n2)c(N2CCC(COc3cc([C@@H](CC(=O)O)C4CC4)ccn3)CC2)c1 [Example 54]	1.71	1.71
COc1ccc(F)c(-c2ccc(COc3cccc([C@@H](CC(=O)O)C4CC4)c3)cc2CC(C)(C)Cn2cc(CCCCCCCCCCCCCCC(=O)NCC[N+](C)(CCC(=O)NCCN)CCC(=O)NCCN)nn2)c1 [Example 58]	36.5	8.14
COc1ccc(F)c(-c2ccc(COc3cccc([C@@H](CC(=O)O)C4CC4)c3)cc2CC(C)(C)Cn2cc(CCCCCCCCCCC(=O)NCC[N+](C)(CCC(=O)NCCN)CCC(=O)NCCN)nn2)c1 [Example 59]	1260	1260
COc1ccc(C(=O)N(CC(C)(C)CCCCCCn2cc(CCCCCCCCCCCCC(=O)NCCN(CC(=O)NCCN)CC(=O)NCCN)nn2)c2cccc(C)n2)c(N2CCC(COc3cc([C@@H](CC(=O)O)C4CC4)ccn3)CC2)c1 [Example 60]	0.44	–
COc1ccc(C(=O)N(CC(C)(C)CCCCCCn2cc(CCCCCCCCCCCCC(=O)NCC[N+](C)(CC(=O)NCCN)CC(=O)NCCN)nn2)c2cccc(C)n2)c(N2CCC(COc3cc([C@@H](CC(=O)O)C4CC4)ccn3)CC2)c1 [Example 61]	0.23	–
C[C@H](C(=O)O)[C@H](c1ccc2c(c1)O[C@@H](C1CCN(Cc3cc(-n4cc(CCCCCCCCCCCCCCCCCC(=O)NCC[N+](C)(C)CCCS(=O)(=O)[O-])nn4)ccc3OC(F)(F)F)CC1)CC2)C1CC1 [Example 66]	0.49	–
COc1ccc(C(=O)N(CC(C)(C)CCCCCCCCCCCCCCCCCCCC(=O)NCC[N+](C)(CC(=O)NCCN)CC(=O)NCCN)c2cccc(C)n2)c(N2CCC(COc3cc([C@@H](CC(=O)O)C4CC4)ccn3)CC2)c1 [Example 67]	0.38	–
COc1ccc(C(=O)N(CC(C)(C)CCCCCCn2cc(CCCCCCCCCCC(=O)NCCN(CCC(=O)NCCN)CCC(=O)NCCN)nn2)c2cccc(C)n2)c(N2CCC(COc3cc([C@@H](CC(=O)O)C4CC4)ccn3)CC2)c1 [Example 68]	1	1.79
C[C@H](C(=O)O)[C@H](c1ccc2c(c1)O[C@@H](C1CCN(Cc3cc(-n4cc(CCCCCCCCCCCCCCC(=O)NCC[N+](C)(CCC(=O)NCCN)CCC(=O)NCCN)nn4)ccc3OC(F)(F)F)CC1)CC2)C1CC1 [Example 72]	6.74	6.74

Further compounds by falling EC50 [1], results first:

EC50 [1] [nM]	EC50 [2] [nM]	SMILES
1760	1760	COc1ccc(F)c(-c2ccc(COc3cccc([C@@H](CC(=O)O)C4CC4)c3)cc2CC(C)(C)Cn2cc(CCCCCCCCCCC(=O)NCCN(CCC(=O)NCCN)CCC(=O)NCCN)nn2)c1 [Example 56]
138	138	COc1ccc(F)c(-c2ccc(COc3cccc([C@@H](CC(=O)O)C4CC4)c3)cc2CC(C)(C)Cn2cc(CCCCCCCCCCCCCC(=O)NCCN(CCC(=O)NCCN)CCC(=O)NCCN)nn2)c1 [Example 55]
63.1	93.1	COc1ccc(F)c(-c2ccc(COc3cccc([C@@H](CC(=O)O)C4CC4)c3)cc2CC(C)(C)Cn2cc(CCCCCCCCCCCCCC(=O)NCC[N+](C)(CCC(=O)NCCN)CCC(=O)NCCN)nn2)c1 [Example 57]
25.3	–	COc1ccc(F)c(-c2ccc(COc3cccc([C@@H](CC(=O)O)C4CC4)c3)cc2C(C)(C)c2cn(CCCCCCCCCCCCCCCC(=O)NCCN(CCC(=O)NCCN)CCC(=O)NCCN)nn2)c1 [Example 40]
19.9	19.9	COc1ccc(F)c(-c2ccc(COc3cccc([C@@H](CC(=O)O)C4CC4)c3)cc2CC(C)(C)Cn2cc(CCCCCCCCCCCCCCC(=O)NCCN(CCC(=O)NCCN)CCC(=O)NCCN)nn2)c1 [Example 49]
4.7	–	COc1ccc(F)c(-c2ccc(COc3cccc([C@@H](CC(=O)O)C4CC4)c3)cc2CC(C)(C)Cn2cc(CCCCCCCCCCCCCCCCCC(=O)NCC[N+](C)(C)CCCS(=O)(=O)[O-])nn2)c1 [Example 48]
2.03	–	C[C@H](C(=O)O)[C@H](c1ccc2c(c1)O[C@@H](C1CCN(Cc3cc(-c4cn(CCCCCCCCCCCCCCCCCC(=O)NCC[N+](C)(C)CCCS(=O)(=O)[O-])nn4)ccc3OC(F)(F)F)CC1)CC2)C1CC1 [Example 46]
0.68	–	COc1ccc(C(=O)N(CC(C)(C)CCCCCCCCCCCCCCCCCCCC(=O)NCCN(CC(=O)NCCN)CC(=O)NCCN)c2cccc(C)n2)c(N2CCC(COc3cc([C@@H](CC(=O)O)C4CC4)ccn3)CC2)c1 [Example 64]
0.43	–	C[C@H](C(=O)O)[C@H](c1ccc2c(c1)O[C@@H](C1CCN(Cc3cc(-n4cc(CCCCCCCCCCCCCCCCCC(=O)NCC[N+](C)(C)C)nn4)ccc3OC(F)(F)F)CC1)CC2)C1CC1 [Example 70]
0.28	–	COc1ccc(C(=O)N(CC(C)(C)CCCCCCCCCCCCCCCCCCCC(=O)NCC[N+](C)(CCC(=O)NCCN)CCC(=O)NCCN)c2cccc(C)n2)c(N2CCC(COc3cc([C@@H](CC(=O)O)C4CC4)ccn3)CC2)c1 [Example 65, (S)-3-((2-aminoethyl)amino)-N-(3-((2-aminoethyl)amino)-3-oxopropyl)-N-(2-(22-(2-(4-(((4-(2-carboxy-1-cyclopropylethyl)pyridin-2-yl)oxy)methyl)piperidin-1-yl)-4-methoxy-N-(6-methylpyridin-2-yl)benzamido)-21,21-dimethyldocosanamido)ethyl)-N-methyl-3-oxopropan-1-aminium chloride]
0.1	–	COc1ccc(C(=O)N(CC(C)(C)CCCCCCn2cc(CCCCCCCCCCCCCCCCCC(=O)NCC[N+](C)(C)CCCS(=O)(=O)[O-])nn2)c2cccc(C)n2)c(N2CCC(COc3cc([C@@H](CC(=O)O)C4CC4)ccn3)CC2)c1 [Example 73]
